Laboratory results published in US9662327B2 (AGIOS PHARMACEUTICALS, INC, priority 2011, dated 2017).

Target: IDH1 R132H (Homo sapiens (Human), UniProt O75874, R132H)
Assay: Assays for IDH1 R132H Inhibitors (NADPH/aKG, resazurin detection)
Type: biochemical
Details: IDH1 R132H enzyme, Table 2; read-out: IDHR132H Activity
In short: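 Substrate mix held 8 uM NADPH plus 2 mM aKG; buffer was 20 mM Tris pH 7.5 with 150 mM NaCl, 10 mM MgCl2, 0.03% BSA. After 50 min room-temperature reaction, NADPH remaining was detected with 30 μM resazurin mix over 5 min.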

Chain of IDH1 R132H (O75874 whole entry R132H): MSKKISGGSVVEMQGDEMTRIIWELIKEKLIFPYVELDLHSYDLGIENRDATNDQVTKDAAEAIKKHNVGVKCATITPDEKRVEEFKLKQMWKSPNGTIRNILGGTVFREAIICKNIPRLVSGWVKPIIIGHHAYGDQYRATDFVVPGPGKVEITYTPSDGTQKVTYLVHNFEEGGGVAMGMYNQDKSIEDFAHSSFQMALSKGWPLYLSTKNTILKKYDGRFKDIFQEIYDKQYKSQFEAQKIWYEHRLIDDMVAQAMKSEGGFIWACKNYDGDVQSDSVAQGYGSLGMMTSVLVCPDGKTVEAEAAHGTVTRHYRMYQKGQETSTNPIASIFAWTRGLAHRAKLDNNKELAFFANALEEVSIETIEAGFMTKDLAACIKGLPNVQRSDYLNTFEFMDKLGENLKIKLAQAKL

Row | IC50 | SMILES
1 | 1 to 10 µM | COc1ccccc1CC(=O)N1CCN(c2nc(C3CCCCC3)c3c(c2C#N)CCOC3)C[C@H]1C [Compound 224, (R)-8-cyclohexyl-6-(4-(2-(2-methoxyphenyl)acetyl)-3-methylpiperazin-1-yl)-3,4-dihydro-1H-pyrano[3,4-c]pyridine-5-carbonitrile]
2 | 1 to 10 µM | Cc1ncoc1C(=O)N1CCN(c2nc(C3CCCCC3)c3c(c2C#N)CCOC3)C[C@H]1C [Compound 225, (R)-8-cyclohexyl-6-(3-methyl-4-(4-methyloxazole-5-carbonyl)piperazin-1-yl)-3,4-dihydro-1H-pyrano[3,4-c]pyridine-5-carbonitrile]
3 | 1 to 10 µM | C[C@@H]1CN(c2nc(C3CCCCC3)c3c(c2C#N)CCOC3)CCN1C(=O)c1cocn1 [Compound 226, (R)-8-cyclohexyl-6-(3-methyl-4-(oxazole-4-carbonyl)piperazin-1-yl)-3,4-dihydro-1H-pyrano[3,4-c]pyridine-5-carbonitrile]
4 | 1 to 10 µM | C[C@@H]1CN(c2nc(C3CCCCC3)c3c(c2C#N)CCOC3)CCN1C(=O)c1cnc2ccccn12 [Compound 227, (R)-8-cyclohexyl-6-(4-(imidazo[1,2-a]pyridine-3-carbonyl)-3-methylpiperazin-1-yl)-3,4-dihydro-1H-pyrano[3,4-c]pyridine-5-carbonitrile]
5 | 1 to 10 µM | CC(C)[C@@H]1CN(c2nc(C3CC3)c3c(c2C#N)CC(C)(C)OC3)CCN1C(=O)Cc1ccccc1F [Compound 228]
6 | 1 to 10 µM | Cc1nc2ccccn2c1C(=O)N1CCN(c2nc(C3CC3)c3c(c2C#N)CC(C)(C)OC3)C[C@H]1C(C)C [Compound 229]
7 | 1 to 10 µM | CC(C)[C@@H]1CN(c2nc(C3CC3)c3c(c2C#N)CC(C)(C)OC3)CCN1C(=O)c1cnn2cccnc12 [Compound 232, (R)-8-cyclopropyl-6-(3-isopropyl-4-(pyrazolo[1,5-a]pyrimidine-3-carbonyl)piperazin-1-yl)-3,3-dimethyl-3,4-dihydro-1H-pyrano[3,4-c]pyridine-5-carbonitrile]
8 | 1 to 10 µM | COc1cccc(CC(=O)N2CCN(c3nc(C(C)C)c4c(c3C#N)CC(C)(C)OC4)C[C@H]2C(C)C)c1 [Compound 233, (R)-8-isopropyl-6-(3-isopropyl-4-(2-(3-methoxyphenyl)acetyl)piperazin-1-yl)-3,3-dimethyl-3,4-dihydro-1H-pyrano[3,4-c]pyridine-5-carbonitrile]
9 | 1 to 10 µM | CC(C)c1nc(N2CCN(C(=O)Cc3cccc(F)c3)[C@H](C(C)C)C2)c(C#N)c2c1COC(C)(C)C2 [Compound 234, (R)-6-(4-(2-(3-fluorophenyl)acetyl)-3-isopropylpiperazin-1-yl)-8-isopropyl-3,3-dimethyl-3,4-dihydro-1H-pyrano[3,4-c]pyridine-5-carbonitrile]
10 | < 0.5 µM | CC[C@@H]1CN(c2nc(C3CC3)c3c(c2C#N)CC(C)(C)OC3)CCN1C(=O)c1ccoc1 [Compound 235]
11 | < 0.5 µM | CC[C@@H]1CN(c2nc(C3CC3)c3c(c2C#N)CC(C)(C)OC3)CCN1C(=O)Cc1cccs1 [Compound 236]
12 | < 0.5 µM | CC[C@@H]1CN(c2nc(C3CC3)c3c(c2C#N)CC(C)(C)OC3)CCN1C(=O)c1ccoc1C [Compound 237, (R)-8-cyclopropyl-6-(3-ethyl-4-(2-methylfuran-3-carbonyl)piperazin-1-yl)-3,3-dimethyl-3,4-dihydro-1H-pyrano[3,4-c]pyridine-5-carbonitrile]
13 | 1 to 10 µM | C[C@@H]1CN(c2nc(C3CCCCC3)c3c(c2C#N)CCOC3)CCN1C(=O)Cc1ccccn1 [Compound 238, (R)-8-cyclohexyl-6-(3-methyl-4-(2-(pyridin-2-yl)acetyl)piperazin-1-yl)-3,4-dihydro-1H-pyrano[3,4-c]pyridine-5-carbonitrile]
14 | 1 to 10 µM | C[C@@H]1CN(c2nc(C3CCCCC3)c3c(c2C#N)CCOC3)CCN1C(=O)c1cscn1 [Compound 239, (R)-8-cyclohexyl-6-(3-methyl-4-(thiazole-4-carbonyl)piperazin-1-yl)-3,4-dihydro-1H-pyrano[3,4-c]pyridine-5-carbonitrile]
15 | 1 to 10 µM | COCCC(=O)N1CCN(c2nc(C3CCCCC3)c3c(c2C#N)CCOC3)C[C@H]1C [Compound 240, (R)-8-cyclohexyl-6-(4-(3-methoxypropanoyl)-3-methylpiperazin-1-yl)-3,4-dihydro-1H-pyrano[3,4-c]pyridine-5-carbonitrile]
16 | 1 to 10 µM | C[C@@H]1CN(c2nc(C3CCCCC3)c3c(c2C#N)CCOC3)CCN1C(=O)c1cccs1 [Compound 241, (R)-8-cyclohexyl-6-(3-methyl-4-(thiophene-2-carbonyl)piperazin-1-yl)-3,4-dihydro-1H-pyrano[3,4-c]pyridine-5-carbonitrile]
17 | 1 to 10 µM | C[C@@H]1CN(c2nc(C3CCCCC3)c3c(c2C#N)CCOC3)CCN1C(=O)c1ccsc1 [Compound 242, (R)-8-cyclohexyl-6-(3-methyl-4-(thiophene-3-carbonyl)piperazin-1-yl)-3,4-dihydro-1H-pyrano[3,4-c]pyridine-5-carbonitrile]

Row | IC50 | SMILES
18 | 1 to 10 µM | C[C@@H]1CN(c2nc(C3CCCCC3)c3c(c2C#N)CCOC3)CCN1C(=O)c1csc2ccccc12 [Compound 243, (R)-6-(4-(benzo[b]thiophene-3-carbonyl)-3-methylpiperazin-1-yl)-8-cyclohexyl-3,4-dihydro-1H-pyrano[3,4-c]pyridine-5-carbonitrile]
19 | 1 to 10 µM | Cc1cc(C(=O)N2CCN(c3nc(C4CC4)c4c(c3C#N)CC(C)(C)OC4)C[C@H]2C)c(C)o1 [Compound 244]
20 | 1 to 10 µM | Cc1cncc(C(=O)N2CCN(c3nc(C4CC4)c4c(c3C#N)CC(C)(C)OC4)C[C@H]2C(C)C)c1 [Compound 245, (R)-8-cyclopropyl-6-(3-isopropyl-4-(5-methylnicotinoyl)piperazin-1-yl)-3,3-dimethyl-3,4-dihydro-1H-pyrano[3,4-c]pyridine-5-carbonitrile]
21 | 1 to 10 µM | CC(C)c1nc(N2CCN(C(=O)c3cccs3)[C@H](C)C2)c(C#N)c2c1COC(C)(C)C2 [Compound 246, (R)-8-isopropyl-3,3-dimethyl-6-(3-methyl-4-(thiophene-2-carbonyl)piperazin-1-yl)-3,4-dihydro-1H-pyrano[3,4-c]pyridine-5-carbonitrile]
22 | 1 to 10 µM | CC(C)c1nc(N2CCN(C(=O)c3csc4ccccc34)[C@H](C)C2)c(C#N)c2c1COC(C)(C)C2 [Compound 247, (R)-6-(4-(benzo[b]thiophene-3-carbonyl)-3-methylpiperazin-1-yl)-8-isopropyl-3,3-dimethyl-3,4-dihydro-1H-pyrano[3,4-c]pyridine-5-carbonitrile]
23 | 1 to 10 µM | CC(C)c1nc(N2CCN(C(=O)Cc3cccnc3)[C@H](C)C2)c(C#N)c2c1COC(C)(C)C2 [Compound 248, (R)-8-isopropyl-3,3-dimethyl-6-(3-methyl-4-(2-(pyridin-3-yl)acetyl)piperazin-1-yl)-3,4-dihydro-1H-pyrano[3,4-c]pyridine-5-carbonitrile]
24 | 1 to 10 µM | CC(C)c1nc(N2CCN(C(=O)c3cccnc3)[C@H](C)C2)c(C#N)c2c1COC(C)(C)C2 [Compound 249, (R)-8-isopropyl-3,3-dimethyl-6-(3-methyl-4-nicotinoylpiperazin-1-yl)-3,4-dihydro-1H-pyrano[3,4-c]pyridine-5-carbonitrile]
25 | 0.5 to 1 µM | CC(C)c1nc(N2CCN(C(=O)Cc3cccnc3)[C@H](C(C)C)C2)c(C#N)c2c1COC(C)(C)C2 [Compound 250, (R)-8-isopropyl-6-(3-isopropyl-4-(2-(pyridin-3-yl)acetyl)piperazin-1-yl)-3,3-dimethyl-3,4-dihydro-1H-pyrano[3,4-c]pyridine-5-carbonitrile]
26 | 1 to 10 µM | CC(C)c1nc(N2CCN(C(=O)c3ccsc3)[C@H](C)C2)c(C#N)c2c1COC(C)(C)C2 [Compound 251, (R)-8-isopropyl-3,3-dimethyl-6-(3-methyl-4-(thiophene-3-carbonyl)piperazin-1-yl)-3,4-dihydro-1H-pyrano[3,4-c]pyridine-5-carbonitrile]
27 | 1 to 10 µM | CC(C)c1nc(N2CCN(C(=O)c3cscn3)[C@H](C)C2)c(C#N)c2c1COC(C)(C)C2 [Compound 252, (R)-8-isopropyl-3,3-dimethyl-6-(3-methyl-4-(thiazole-4-carbonyl)piperazin-1-yl)-3,4-dihydro-1H-pyrano[3,4-c]pyridine-5-carbonitrile]
28 | 1 to 10 µM | CC(C)c1nc(N2CCN(C(=O)C3CCOC3)[C@H](C)C2)c(C#N)c2c1COC(C)(C)C2 (stereo partly drawn) [Compound 253, 8-isopropyl-3,3-dimethyl-6-((3R)-3-methyl-4-(tetrahydrofuran-3-carbonyl)piperazin-1-yl)-3,4-dihydro-1H-pyrano[3,4-c]pyridine-5-carbonitrile]
29 | 0.5 to 1 µM | COc1cccc(CC(=O)N2CCN(c3nc(C4CC4)c4c(c3C#N)CC(C)(C)OC4)C[C@H]2C(C)C)c1 [Compound 254]
30 | 1 to 10 µM | CC(C)c1nc(N2CCN(C(=O)c3ccoc3)[C@H](c3ccccc3)C2)c(C#N)c2c1COC(C)(C)C2 [Compound 256, (R)-6-(4-(furan-3-carbonyl)-3-phenylpiperazin-1-yl)-8-isopropyl-3,3-dimethyl-3,4-dihydro-1H-pyrano[3,4-c]pyridine-5-carbonitrile]
31 | 1 to 10 µM | CC(C)c1nc(N2CCN(C(=O)c3ccoc3)[C@@H](c3ccccc3)C2)c(C#N)c2c1COC(C)(C)C2 [Compound 257, (S)-6-(4-(furan-3-carbonyl)-3-phenylpiperazin-1-yl)-8-isopropyl-3,3-dimethyl-3,4-dihydro-1H-pyrano[3,4-c]pyridine-5-carbonitrile]
32 | 1 to 10 µM | CCOC(=O)C1CN(c2nc(C3CCCCC3)c3c(c2C#N)CCOC3)CCN1C(=O)c1ccoc1 (stereo not drawn) [Compound 258, ethyl 4-(5-cyano-8-cyclohexyl-3,4-dihydro-1H-pyrano[3,4-c]pyridin-6-yl)-1-(furan-3-carbonyl) piperazine-2-carboxylate]
33 | 1 to 10 µM | CCOC(=O)C1CN(c2nc(C3CC3)c3c(c2C#N)CC(C)(C)OC3)CCN1C(=O)c1ccoc1 (stereo not drawn) [Compound 259, ethyl 4-(5-cyano-8-cyclopropyl-3,3-dimethyl-3,4-dihydro-1H-pyrano[3,4-c]pyridin-6-yl)-1-(furan-3-carbonyl)piperazine-2-carboxylate]
